What was measured:
Test in all cases: relative viability (nuclei count vs DMSO), 5 days (fraction); higher = more cells survive
A-427 = test system: A-427
Procedure, shortened: (§1)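 One day after seeding in 1536-well plates, lung cancer cell lines were dosed by pin tool. Dosing was either single-drug or a fixed anchor-drug dose plus five library-drug doses (not always all listed) in √10 steps. After 5 days, nuclei were stained in one fix-and-stain step and counted on 4× images, and relative viability is the nuclei count of treated wells over that of vehicle wells, given as the median of duplicate plates.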

BEN = test system: BEN
Procedure, shortened: as §1

COR-L23 = test system: COR-L23
Procedure, shortened: as §1

EKVX = test system: EKVX
Procedure, shortened: as §1

HCC-44 = test system: HCC-44
Procedure, shortened: as §1

HCC-78 = test system: HCC-78
Procedure, shortened: as §1

HOP-62 = test system: HOP-62
Procedure, shortened: as §1

LC-2-ad = test system: LC-2-ad
Procedure, shortened: as §1

LOU-NH91 = test system: LOU-NH91
Procedure, shortened: as §1

LXF-289 = test system: LXF-289
Procedure, shortened: as §1

NCI-H1650 = test system: NCI-H1650
Procedure, shortened: as §1

NCI-H1734 = test system: NCI-H1734
Procedure, shortened: as §1

NCI-H1793 = test system: NCI-H1793
Procedure, shortened: as §1

NCI-H1993 = test system: NCI-H1993
Procedure, shortened: as §1

NCI-H2023 = test system: NCI-H2023
Procedure, shortened: as §1

NCI-H2347 = test system: NCI-H2347
Procedure, shortened: as §1

NCI-H358 = test system: NCI-H358
Procedure, shortened: as §1

NCI-H441 = test system: NCI-H441
Procedure, shortened: as §1

NCI-H520 = test system: NCI-H520
Procedure, shortened: as §1

NCI-H522 = test system: NCI-H522
Procedure, shortened: as §1

NCI-H596 = test system: NCI-H596
Procedure, shortened: as §1

SW 1573 = test system: SW 1573
Procedure, shortened: as §1

How did the relative viability (A-427; first compound 0.08 µM) turn out when Oc1nc(-c2ccc(C(F)(F)F)cc2)nc2c1CSCC2 [XAV939] + Nc1nc2[nH]cc(CCc3ccc(C(=O)N[C@@H](CCC(=O)O)C(=O)O)cc3)c2c(=O)[nH]1 [Pemetrexed] (partner 0.2 µM) was run?
Its relative viability is 0.613.

What about the relative viability (A-427; first compound 0.253 µM) of the same compound?
The relative viability was 0.953.

And the relative viability (A-427; first compound 0.8 µM)?
Its relative viability is 0.962.

What about the relative viability (A-427; first compound 2.53 µM) of the same compound?
Its relative viability is 0.837.

What about the relative viability (BEN; first compound 0.08 µM) of the same compound?
The relative viability was 0.651.

What about the relative viability (BEN; first compound 0.253 µM) of the same compound?
Its relative viability is 0.727.

And the relative viability (BEN; first compound 0.8 µM)?
Its relative viability is 0.817.

And the relative viability (BEN; first compound 2.53 µM)?
Its relative viability is 0.731.

What about the relative viability (COR-L23; first compound 0.08 µM) of the same compound?
The relative viability was 0.205.

And the relative viability (COR-L23; first compound 0.253 µM)?
The relative viability was 0.186.

And the relative viability (COR-L23; first compound 0.8 µM)?
The relative viability was 0.203.

What about the relative viability (COR-L23; first compound 2.53 µM) of the same compound?
Its relative viability is 0.206.

And the relative viability (EKVX; first compound 0.08 µM)?
Its relative viability is 0.443.

And the relative viability (EKVX; first compound 0.253 µM)?
The relative viability was 0.326.

And the relative viability (EKVX; first compound 0.8 µM)?
The relative viability was 0.266.

And the relative viability (EKVX; first compound 2.53 µM)?
The relative viability was 0.303.

And the relative viability (HCC-44; first compound 0.08 µM)?
Its relative viability is 0.614.

What about the relative viability (HCC-44; first compound 0.253 µM) of the same compound?
The relative viability was 0.59.

And the relative viability (HCC-44; first compound 0.8 µM)?
The relative viability was 0.636.

What about the relative viability (HCC-44; first compound 2.53 µM) of the same compound?
The relative viability was 0.616.

What about the relative viability (HCC-78; first compound 0.08 µM) of the same compound?
The relative viability was 0.881.

And the relative viability (HCC-78; first compound 0.253 µM)?
Its relative viability is 0.829.

And the relative viability (HCC-78; first compound 0.8 µM)?
The relative viability was 0.846.

What about the relative viability (HCC-78; first compound 2.53 µM) of the same compound?
Its relative viability is 0.942.

And the relative viability (HOP-62; first compound 0.08 µM)?
The relative viability was 0.347.

What about the relative viability (HOP-62; first compound 0.253 µM) of the same compound?
Its relative viability is 0.287.

What about the relative viability (HOP-62; first compound 0.8 µM) of the same compound?
The relative viability was 0.292.

And the relative viability (HOP-62; first compound 2.53 µM)?
Its relative viability is 0.215.

What about the relative viability (LC-2-ad; first compound 0.08 µM) of the same compound?
Its relative viability is 0.281.

And the relative viability (LC-2-ad; first compound 0.253 µM)?
Its relative viability is 0.265.

What about the relative viability (LC-2-ad; first compound 0.8 µM) of the same compound?
The relative viability was 0.264.

What about the relative viability (LC-2-ad; first compound 2.53 µM) of the same compound?
The relative viability was 0.266.

And the relative viability (LOU-NH91; first compound 0.08 µM)?
Its relative viability is 0.461.

And the relative viability (LOU-NH91; first compound 0.253 µM)?
The relative viability was 0.359.

What about the relative viability (LOU-NH91; first compound 0.8 µM) of the same compound?
The relative viability was 0.391.

What about the relative viability (LOU-NH91; first compound 2.53 µM) of the same compound?
The relative viability was 0.349.

What about the relative viability (LXF-289; first compound 0.08 µM) of the same compound?
Its relative viability is 0.886.

And the relative viability (LXF-289; first compound 0.253 µM)?
The relative viability was 0.916.

And the relative viability (LXF-289; first compound 0.8 µM)?
The relative viability was 0.957.

What about the relative viability (LXF-289; first compound 2.53 µM) of the same compound?
The relative viability was 0.895.

And the relative viability (NCI-H1650; first compound 0.08 µM)?
Its relative viability is 0.368.

What about the relative viability (NCI-H1650; first compound 0.253 µM) of the same compound?
The relative viability was 0.301.

And the relative viability (NCI-H1650; first compound 0.8 µM)?
Its relative viability is 0.356.

And the relative viability (NCI-H1650; first compound 2.53 µM)?
Its relative viability is 0.365.

And the relative viability (NCI-H1734; first compound 0.08 µM)?
Its relative viability is 0.444.

What about the relative viability (NCI-H1734; first compound 0.253 µM) of the same compound?
The relative viability was 0.405.

What about the relative viability (NCI-H1734; first compound 0.8 µM) of the same compound?
Its relative viability is 0.417.

And the relative viability (NCI-H1734; first compound 2.53 µM)?
The relative viability was 0.392.

And the relative viability (NCI-H1793; first compound 0.08 µM)?
The relative viability was 1.08.

And the relative viability (NCI-H1793; first compound 0.253 µM)?
Its relative viability is 0.797.

What about the relative viability (NCI-H1793; first compound 0.8 µM) of the same compound?
Its relative viability is 0.936.

What about the relative viability (NCI-H1793; first compound 2.53 µM) of the same compound?
Its relative viability is 0.678.

What about the relative viability (NCI-H1993; first compound 0.08 µM) of the same compound?
The relative viability was 0.575.

And the relative viability (NCI-H1993; first compound 0.253 µM)?
The relative viability was 0.471.

And the relative viability (NCI-H1993; first compound 0.8 µM)?
Its relative viability is 0.536.

What about the relative viability (NCI-H1993; first compound 2.53 µM) of the same compound?
Its relative viability is 0.541.

What about the relative viability (NCI-H2023; first compound 0.08 µM) of the same compound?
The relative viability was 0.279.

What about the relative viability (NCI-H2023; first compound 0.253 µM) of the same compound?
Its relative viability is 0.197.

And the relative viability (NCI-H2023; first compound 0.8 µM)?
Its relative viability is 0.208.

And the relative viability (NCI-H2023; first compound 2.53 µM)?
The relative viability was 0.199.

And the relative viability (NCI-H2347; first compound 0.08 µM)?
Its relative viability is 0.456.

What about the relative viability (NCI-H2347; first compound 0.253 µM) of the same compound?
Its relative viability is 0.41.

And the relative viability (NCI-H2347; first compound 0.8 µM)?
The relative viability was 0.435.

And the relative viability (NCI-H2347; first compound 2.53 µM)?
The relative viability was 0.42.

And the relative viability (NCI-H358; first compound 0.08 µM)?
Its relative viability is 0.168.

And the relative viability (NCI-H358; first compound 0.253 µM)?
Its relative viability is 0.162.

What about the relative viability (NCI-H358; first compound 0.8 µM) of the same compound?
Its relative viability is 0.165.

And the relative viability (NCI-H358; first compound 2.53 µM)?
Its relative viability is 0.171.

What about the relative viability (NCI-H441; first compound 0.08 µM) of the same compound?
Its relative viability is 0.243.

And the relative viability (NCI-H441; first compound 0.253 µM)?
Its relative viability is 0.242.

And the relative viability (NCI-H441; first compound 0.8 µM)?
Its relative viability is 0.261.

And the relative viability (NCI-H441; first compound 2.53 µM)?
Its relative viability is 0.231.

What about the relative viability (NCI-H520; first compound 0.08 µM) of the same compound?
The relative viability was 0.757.

And the relative viability (NCI-H520; first compound 0.8 µM)?
Its relative viability is 0.594.

And the relative viability (NCI-H520; first compound 2.53 µM)?
Its relative viability is 0.626.

And the relative viability (NCI-H522; first compound 0.08 µM)?
The relative viability was 1.04.

What about the relative viability (NCI-H522; first compound 0.253 µM) of the same compound?
Its relative viability is 0.88.

And the relative viability (NCI-H522; first compound 0.8 µM)?
The relative viability was 0.964.

What about the relative viability (NCI-H522; first compound 2.53 µM) of the same compound?
The relative viability was 0.985.

What about the relative viability (NCI-H596; first compound 0.08 µM) of the same compound?
Its relative viability is 0.544.

And the relative viability (NCI-H596; first compound 0.253 µM)?
Its relative viability is 0.488.

What about the relative viability (NCI-H596; first compound 0.8 µM) of the same compound?
Its relative viability is 0.588.

What about the relative viability (NCI-H596; first compound 2.53 µM) of the same compound?
Its relative viability is 0.435.

And the relative viability (SW 1573; first compound 0.08 µM)?
The relative viability was 0.876.

And the relative viability (SW 1573; first compound 0.253 µM)?
Its relative viability is 0.659.

And the relative viability (SW 1573; first compound 0.8 µM)?
Its relative viability is 0.816.

What about the relative viability (SW 1573; first compound 2.53 µM) of the same compound?
Its relative viability is 0.731.

— the supplement of paper PMC10307832
